{
  "source": "patent US9863938B2",
  "about": "“Synthetic antibodies” (ARIZONA BOARD OF REGENTS, A BODY CORPORATE OF THE STATE OF …, priority 2006, dated 2018)",
  "key": {"[1]": {"molecular_target": "T1, human α-thrombin (Homo sapiens, UniProt P00734)", "T1 construct": "concentrations of human α-thrombin ranging from 0 to 100 nM", "experiment": "ELISA-type assay on wells coated with thrombin", "assay_type": "binding", "conditions": "read-out: Dissociation constant estimated", "protocol": "Binding to thrombin was evaluated in an ELISA-type assay. Wells of a 96 well plate were coated with 100 μL of 30 μg/mL human α-thrombin and incubated at 4 C overnight. The plate was washed twice with DDI H2O and passivated with 3% BSA in IX PBS buffer for 1 hour. The plate was shaken out and 50 μL of varying concentrations of analyte (DNA tile synbody, DNA tile with each aptamer with the other not present, and each aptamer alone, respectively) were incubated at RT for 1 hour. DNA tiles were biotin-modified at the 5′ end of one of the distal DNA strands 346 (see FIG. 26(a)). The plate was rinsed 10 times in IXPBS and 50 μL of 1:1000 dilution of streptavidin-HRP in 0.1% BSA in IX PBS was pipetted and incubated for 1 hour at RT. The plate was again rinsed and 50 μL of TMB was added and incubated at RT for 15 minutes. 50 μL of 0.5M HCl was added and the plate was read immediately. Results are shown in FIG. 27 for the DNA tile synbody 350; the DNA tile with Apt1 (SEQ ID NO: 20) but not Apt2 (SEQ ID NO: 21) present 352; the DNA tile with Apt2 but not Apt1 (SEQ ID NO: 20) present 356; Apt1 (SEQ ID NO: 20) alone 354; and Apt2 (SEQ ID NO: 21) alone 358. Dissociation constant values estimated from this assay were about 1 nM for the DNA tile synbody, about 10 nM for Apt1 (SEQ ID NO: 20) alone, and more than 1 μM for Apt2 (SEQ ID NO: 21) alone."}, "[2]": {"molecular_target": "T2, transferrin (Homo sapiens, UniProt P02787)", "T2 sequence (P02787 20-698, species assumed)": "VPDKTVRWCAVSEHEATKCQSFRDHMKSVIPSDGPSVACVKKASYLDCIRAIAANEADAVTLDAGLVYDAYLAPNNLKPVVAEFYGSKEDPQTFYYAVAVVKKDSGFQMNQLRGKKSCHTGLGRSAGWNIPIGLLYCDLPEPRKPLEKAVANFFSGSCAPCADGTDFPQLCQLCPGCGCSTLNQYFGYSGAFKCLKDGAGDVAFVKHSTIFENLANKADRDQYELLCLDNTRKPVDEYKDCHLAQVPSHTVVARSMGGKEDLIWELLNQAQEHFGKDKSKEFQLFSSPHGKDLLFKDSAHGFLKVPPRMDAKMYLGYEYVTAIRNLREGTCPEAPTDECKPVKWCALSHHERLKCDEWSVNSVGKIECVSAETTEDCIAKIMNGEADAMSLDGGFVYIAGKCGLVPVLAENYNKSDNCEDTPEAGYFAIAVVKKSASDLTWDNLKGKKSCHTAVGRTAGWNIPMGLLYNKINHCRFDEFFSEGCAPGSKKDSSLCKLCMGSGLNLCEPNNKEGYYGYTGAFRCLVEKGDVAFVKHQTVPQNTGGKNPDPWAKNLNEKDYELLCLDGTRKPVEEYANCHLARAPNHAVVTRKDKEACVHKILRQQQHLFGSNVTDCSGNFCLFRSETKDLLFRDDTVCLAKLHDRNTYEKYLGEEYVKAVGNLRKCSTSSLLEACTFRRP", "experiment": "SPR analysis of 1:1 polypeptide pairs for binding to distinct sites on immobilized target", "conditions": "SPR response of pair mixture versus single polypeptides", "description": "The transferrin target was immobilized on a Biacore T100 SPR chip, and candidate polypeptides were applied in 1:1 mixtures in pairs and response data obtained, in accordance with the methods described in Example 4 above."}, "[3]": {"molecular_target": "T2, transferrin", "experiment": "SPR steady-state solution phase KD of candidate affinity elements, transferrin immobilized on Biacore T100 chip", "assay_type": "binding", "protocol": "Transferrin was immobilized by amine-coupling to the carboxyl-functionalized surface of a Biacore T100 CMS Dextran SPR chip as illustrated in FIG. 11. A 1:1 mixture of EDC (0.4M 1-ethyl-3-(3-dimethylaminopropyl)-carbodiimide in water) and NHS (0.1M N-hydroxysuccinimide in water) was applied 300 at a flow rate of 5 to 10 μl/min for a contact time of about 6 to 10 minutes to activate the surface by conjugating […] 306 to the surface-exposed carboxyl groups. Transferrin 25 μg/ml in immobilization buffer selected for correct pH was then applied 302 at a flow rate of 5 to 10 μl/min for a contact time of about 5 to 10 minutes, allowing the amine functionality on the transferrin 308 to displace the activated NHS ester and bond to the surface via an amide bond. Finally, ethylene diamine (1 M ethylene diamine-HCl at pH 8.5) was applied at a flow rate of 5 to 10 μl/min for a contact time of about 6 to 7 minutes to deactivate any remaining reactive groups on the dextran chip surface. Flow rates and contact times are adjusted as necessary to provide the surface concentration of target desired for the intended application, and may vary by target. In general, for evaluating whether binding occurs, it is preferable to immobilize a relatively large quantity of target, and higher flow rates and/or longer contact times may be used. For determining kinetics, it is preferable to limit the amount of target immobilized so as to minimize rebinding and avidity effects, and lower flow rates and/or contact times may be used.\nCandidate affinity elements for the transferrin synbody TRF 19 (SEQ ID NO: 1), TRF21 (SEQ ID NO: 3), TRF23 (SEQ ID NO: 5), TRF24 (SEQ ID NO: 6), TRF25 (SEQ ID NO: 7), and TRF26 (SEQ ID NO: 8) were individually evaluated for solution phase KD with respect to transferrin by SPR analysis. Because the off rates for these polypeptides were very high, KD values were estimated by measuring steady-state response for at least five concentrations in a two-fold dilution series, each concentration tested in duplicate. For each experiment, response data were processed using a reference surface to correct for bulk refractive index changes and any nonspecific binding. Data were also double referenced using responses from blank running buffer injections. Each experiment was conducted at 25° C. using PBST (0.01M Phosphate Buffered Saline, 0.138M NaCl, 0.0027M KCl, 0.05% surfactant Tween20, pH 7.4) as the running buffer on a Biacore T100 instrument. Analytes were injected for 60 s at a flow rate of 30 μl/min. The antigen surfaces were regenerated with 30 s consecutive pulses of NaOH/NaCl (50 mM NaOH in IM NaCl) and Glycine (10 mM glycine —HCl, pH 2.5)."}, "[4]": {"test_system": "8,000 human proteins (GST fusion)", "experiment": "Invitrogen Protoarray Human Protein Microarray (8,000 features), fluorescence intensity of bound ligand", "assay_type": "binding", "protocol": "Two biotinylated anti-TRF synbodies (SYN23-26 and SYN 21-22) were applied to a protein microarray having 8,000 features (Invitrogen Protoarray Human Protein Microarray v. 4.0 for immune response biomarker profiling), each feature comprising a distinct human protein (GST fusion) adsorbed to a nitrocellulose coated slide. Application of the synbodies to the microarray was performed in accordance with manufacturer instructions: (see ProtoArray Human Protein Microarray, Invitrogen, Catalog no. PAH052401, Version B, 15 Dec. 2006, 25-0970, Users Manual.) After blocking the array with 1% BSA/PBS/0.1% Tween for 1 hour at 4 C with gentle shaking, 120 μl of probing buffer (1×PBS, 5 mM mgCl2, 0.5 mM DTT, 0.05% Triton X-100, 5% glycerol, 1% BSA) with synbody was applied to the array. The prescribed cover slip was placed over the array and adjusted to remove air bubbles. The array was incubated in a 50 ml conical tube, printed side up, for 1.5 hours at 4 C without shaking The array was then removed from the conical tube inserted diagonally into the array chamber, kept on ice. 8 ml probing buffer was added to the chamber wall. The cover slip was removed and the array was incubated in probing buffer for 1 minute on ice. […] The array was dried in the dark for 60 minutes at room temperature, after which it was scanned using a fluorescent microarray scanner and data was taken and analyzed."}, "[5]": {"conditions": "estimated from steady-state SPR response, 25° C., PBST pH 7.4, read-out: Solution Phase KD"}, "[6]": {"conditions": "restates Table 3, read-out: solution phase affinities for transferrin, range of KD"}},
  "note": "Where two headings read alike, the source gives them in different places. Bridge positions count the residues as written; N and C are the ends. Ends that are not written are not given here. I, II: the chains in the order shown.",
  "data": [
    {"substance": "5′-AGTCCGTGGTAGGGCAGGTTGGGGTGACT-3′ [Apt1]", "values": [
      {"measurement": "Kd", "setting": "[1]", "result": "~0.01", "unit": "µM"}
    ]},
    {"substance": "FRGWAHIFFGPHVIYRGGSC [TRF23]", "values": [
      {"measurement": "binding to distinct sites on target", "setting": "[2]", "result": "bind distinct sites on transferrin"},
      {"measurement": "Kd", "setting": "[3]; [5]", "result": "~50", "unit": "µM"},
      {"measurement": "Kd", "setting": "[3]; [6]", "result": "50 to 100", "unit": "µM"}
    ]},
    {"substance": "5′-GGTTGGTGTGGTTGG-3′ [Apt2]", "values": [
      {"measurement": "Kd", "setting": "[1]", "result": "> 1", "unit": "µM"}
    ]},
    {"substance": "I: H-FRGWAHIFFGPHVIYRGGSGKC / II: H-AHKVVPQRQIRHAYNRYGSG (amide I:21-II:C) [SYN23-26]", "values": [
      {"measurement": "highest affinity target from library of 8,000", "setting": "[4]", "result": "PCCA"},
      {"measurement": "targets bound with intensities higher than that of 1C10 for TRF", "setting": "[4]", "result": "seven targets"}
    ]},
    {"substance": "QYHHFMNLKRQGRAQAYGSC [TRF21]", "values": [
      {"measurement": "Kd", "setting": "[3]; [5]", "result": "~60", "unit": "µM"}
    ]},
    {"substance": "AHKVVPQRQIRHAYNRYGSC [TRF26]", "values": [
      {"measurement": "binding to distinct sites on target", "setting": "[2]", "result": "bind distinct sites on transferrin"},
      {"measurement": "Kd", "setting": "[3]; [6]", "result": "50 to 100", "unit": "µM"}
    ]},
    {"substance": "APYAPQQIHYWSTLGFKGSC [TRF25]", "values": [
      {"measurement": "Kd", "setting": "[3]; [5]", "result": "~60", "unit": "µM"}
    ]}
  ]
}
